# Source: patent US20220370440A1 (Lead Discovery Center GmbH, priority 2018, published 2022)
# Legend:
# [1] = molecular target: EGFR Exon 20 INSNPH Ba/F3 (Homo sapiens, UniProt P00533, DUP771-773, cells depend on it); assay: EGFR Exon 20 INSNPH Ba/F3 CellTiter-Glo; type: cell-based; conditions: CellTiter-Glo, 72 h, read-out: EGFR Exon 20 INSNPH Ba/F3 CTG IC50
# Outline: (§1)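 IC50 values come from dose–response fits of CellTiter-Glo luminescence in Ba/F3 cells treated with compound for 72 h at 37 °C, 5% CO2. Vehicle (DMSO) and 10 μM staurosporine wells set the assay window, with Z′ ≥0.5 required.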
# [2] = Metabolic stability in mouse liver microsomes without cofactor NADPH; type: in vitro ADME; conditions: 3 μM test compound, mouse liver microsomes, without NADPH, 50 min, 37° C., LC-MS/MS
# Outline: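 Test compound (3 μM) was incubated with mouse liver microsomes without NADPH at 37° C. Depletion was followed by LC-MS/MS over time up to 50 min.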
# H1975 = H1975 CellTiter-Glo; type: cell-based; conditions: Homo sapiens, NCI-H1975; 72 h compound incubation; read-out: H1975 CTG IC50
# Outline: (§2)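 Cells seeded, after 24 h at 37° C/5% CO2 treated with compounds in DMSO at various concentrations for 72 h. Viability from ATP luminescence (CellTiter-Glo); DMSO and 10 μM Staurosporine as controls; IC50 from dose-response fit, plates accepted at Z′ ≥0.5.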
# EGFR wt = EGFR wt (Homo sapiens, UniProt P00533); assay: EGFR wt Lance assay; type: biochemical
# Method: (§3) Inhibition is indicated as […] [nM] (“−”=not measured). Compounds having an activity designated as “A” provided an IC50≤100 nM; compounds having an activity designated as “B” provided an 100 nM<IC50≤500 nM; compounds having an activity designated as “C” provided an 500 nM<IC50≤1000 nM; compounds having an activity designated as “D” provided an 1000 nM<IC50≤100000 nM; and compounds having an activity designated as “E” provided an IC50>10000 nM.
# [3] = molecular target: Her2 Exon 20 INSYVMA Ba/F3 (Homo sapiens, UniProt P04626, DUP772-775, cells depend on it); assay: Her2 Exon 20 INSYVMA Ba/F3 CellTiter-Glo; type: cell-based; conditions: CellTiter-Glo, 72 h, read-out: Her2 Exon 20 INSYVMA Ba/F3 CTG IC50
# Outline: as §1
# EGFR T790ML858R = EGFR T790ML858R (Homo sapiens, UniProt P00533, L858R/T790M); assay: EGFR T790ML858R Lance assay; type: biochemical
# Method: as §3
# H1781 = H1781 CellTiter-Glo; type: cell-based; conditions: NCI-H1781; 72 h compound incubation; read-out: H1781 CTG IC50
# Method: 2. Measurement of Cellular Activity
# The CellTiter-Glo Luminescent Cell Viability Assay (Promega) is a homogeneous method of determining the number of viable cells in culture. It is based on quantification of ATP, indicating the presence of metabolically active cells. Cells are seeded on day 1 at cell numbers that assure assay linearity and optimal signal intensity. After incubation for 24 h in humidified chambers at 37° C. and 5% CO2, compounds in DMSO are added at different concentrations. Cells are further incubated for 72 h at 37° C. and 5% CO2. Cells treated with the compound vehicle DMSO are used as positive controls and cells treated with 10 μM Staurosporine serve as negative controls. At day 5 the CellTiter Glo Reagent is prepared according to the instructions of the kit (Promega Inc.): Reagent is mixed 1:1 with cell culture medium. Thereon, mixture and assay plates are equilibrated at room temperature for 20 min. Equal volumes of the reagent-medium-mixture is added to the volume of culture medium present in each well. The plates are mixed at ˜200 rpm for 2 minutes on an orbital shaker. The microplates are then incubated at room temperature for 10 minutes for stabilization of the luminescent signal. Following incubation the luminescence is recorded on a Victor microplate reader (Perkin Elmer) using a 200 ms integration time. The data is then analyzed with Excel using the XLFIT Plugin (dose response Fit 205) for IC50-determination. As quality control the Z′-factor is calculated from 16 positive and negative control values. Only assay results showing a Z′-factor ≥0.5 are used for further analysis.
# as §3
# HER2 INS YVMA = molecular target: T1, HER2 INS YVMA (Homo sapiens, UniProt P04626, INS775YVMA); assay: Lance Kinase Activity Assay, HER2 INS YVMA (Her2 Exon 20 INSYVMA Lance); type: biochemical; conditions: biochemical Lance assay
# T1 construct: purchased DPF
# Outline: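 Kinase phosphorylates a ULight-labelled peptide substrate; Eu anti-phospho antibody gives TR-FRET (ex 340 nm, em 665/615 nm). Compounds in 1:3 serial dilution over 8 steps, reaction started with ATP, 1 h at room temperature, stopped with EDTA-containing detection mix for 1 h. IC50 from sigmoidal dose-response curves.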
# A431 = A431 CellTiter-Glo; type: cell-based; conditions: Homo sapiens, A-431; 72 h compound incubation; read-out: A431 CTG IC50
# Outline: as §2
# Sequence of EGFR wt (P00533 25-1210): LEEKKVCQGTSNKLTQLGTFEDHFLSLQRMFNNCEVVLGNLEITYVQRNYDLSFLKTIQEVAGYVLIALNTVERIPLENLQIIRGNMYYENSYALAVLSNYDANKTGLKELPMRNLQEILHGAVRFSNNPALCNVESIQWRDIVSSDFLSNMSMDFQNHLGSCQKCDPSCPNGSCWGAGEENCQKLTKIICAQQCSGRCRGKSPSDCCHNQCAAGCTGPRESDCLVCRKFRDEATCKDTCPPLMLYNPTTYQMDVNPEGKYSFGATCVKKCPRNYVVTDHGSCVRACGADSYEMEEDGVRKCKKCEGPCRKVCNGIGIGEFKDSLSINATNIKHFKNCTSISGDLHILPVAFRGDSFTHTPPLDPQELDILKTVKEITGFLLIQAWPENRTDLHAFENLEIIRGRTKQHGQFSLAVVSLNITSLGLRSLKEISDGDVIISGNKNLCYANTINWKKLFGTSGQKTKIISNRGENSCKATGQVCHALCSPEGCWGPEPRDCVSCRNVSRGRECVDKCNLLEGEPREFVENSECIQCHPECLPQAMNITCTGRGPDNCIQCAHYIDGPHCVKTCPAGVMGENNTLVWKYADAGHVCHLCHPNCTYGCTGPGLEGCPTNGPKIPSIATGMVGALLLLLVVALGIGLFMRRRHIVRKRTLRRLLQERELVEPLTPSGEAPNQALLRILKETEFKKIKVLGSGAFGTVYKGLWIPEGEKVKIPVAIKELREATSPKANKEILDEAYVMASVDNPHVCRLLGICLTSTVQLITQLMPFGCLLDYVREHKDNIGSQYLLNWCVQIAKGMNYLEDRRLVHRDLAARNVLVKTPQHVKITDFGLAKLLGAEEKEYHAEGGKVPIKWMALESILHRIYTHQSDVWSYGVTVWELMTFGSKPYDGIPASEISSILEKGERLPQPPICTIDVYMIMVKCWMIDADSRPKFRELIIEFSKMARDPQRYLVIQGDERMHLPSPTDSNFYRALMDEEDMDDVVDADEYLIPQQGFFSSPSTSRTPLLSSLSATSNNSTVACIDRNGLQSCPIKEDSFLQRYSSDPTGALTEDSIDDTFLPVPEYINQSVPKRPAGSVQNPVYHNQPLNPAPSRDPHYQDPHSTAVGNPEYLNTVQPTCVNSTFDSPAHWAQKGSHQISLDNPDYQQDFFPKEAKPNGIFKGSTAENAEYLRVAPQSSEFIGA
# Sequence of EGFR Exon 20 INSNPH Ba/F3 (P00533 with tags, fused parts or gaps DUP771-773): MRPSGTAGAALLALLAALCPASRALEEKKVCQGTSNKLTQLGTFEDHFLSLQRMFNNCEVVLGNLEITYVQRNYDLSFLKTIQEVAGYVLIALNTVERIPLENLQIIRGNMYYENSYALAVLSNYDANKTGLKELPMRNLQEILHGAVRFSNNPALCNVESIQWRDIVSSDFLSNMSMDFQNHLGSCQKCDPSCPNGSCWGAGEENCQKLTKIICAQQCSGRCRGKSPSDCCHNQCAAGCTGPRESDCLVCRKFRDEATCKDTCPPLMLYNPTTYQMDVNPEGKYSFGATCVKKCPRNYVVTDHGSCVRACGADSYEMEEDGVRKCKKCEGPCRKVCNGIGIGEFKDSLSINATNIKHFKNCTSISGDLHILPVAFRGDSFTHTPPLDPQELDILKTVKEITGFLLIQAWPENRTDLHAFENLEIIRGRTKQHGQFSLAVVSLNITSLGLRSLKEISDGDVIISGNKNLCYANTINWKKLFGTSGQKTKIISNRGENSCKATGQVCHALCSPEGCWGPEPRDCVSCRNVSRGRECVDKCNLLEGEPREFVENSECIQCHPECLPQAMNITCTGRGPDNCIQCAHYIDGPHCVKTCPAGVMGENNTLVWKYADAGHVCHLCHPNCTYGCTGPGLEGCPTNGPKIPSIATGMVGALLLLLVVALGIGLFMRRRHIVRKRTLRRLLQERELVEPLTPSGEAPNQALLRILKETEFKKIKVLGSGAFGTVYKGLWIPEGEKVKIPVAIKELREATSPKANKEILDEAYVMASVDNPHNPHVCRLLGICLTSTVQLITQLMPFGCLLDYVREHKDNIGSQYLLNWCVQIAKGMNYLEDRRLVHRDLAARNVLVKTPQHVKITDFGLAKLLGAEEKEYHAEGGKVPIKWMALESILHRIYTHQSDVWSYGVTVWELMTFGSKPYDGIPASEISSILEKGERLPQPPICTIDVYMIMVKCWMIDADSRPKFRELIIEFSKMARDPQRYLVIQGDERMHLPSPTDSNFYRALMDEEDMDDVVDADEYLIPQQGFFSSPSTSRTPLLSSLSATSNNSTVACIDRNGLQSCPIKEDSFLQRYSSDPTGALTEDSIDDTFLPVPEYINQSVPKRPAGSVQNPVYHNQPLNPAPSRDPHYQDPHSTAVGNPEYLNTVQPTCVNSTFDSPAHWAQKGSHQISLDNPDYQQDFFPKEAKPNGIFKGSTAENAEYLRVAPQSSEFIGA
# Sequence of Her2 Exon 20 INSYVMA Ba/F3 (P04626 with tags, fused parts or gaps DUP772-775): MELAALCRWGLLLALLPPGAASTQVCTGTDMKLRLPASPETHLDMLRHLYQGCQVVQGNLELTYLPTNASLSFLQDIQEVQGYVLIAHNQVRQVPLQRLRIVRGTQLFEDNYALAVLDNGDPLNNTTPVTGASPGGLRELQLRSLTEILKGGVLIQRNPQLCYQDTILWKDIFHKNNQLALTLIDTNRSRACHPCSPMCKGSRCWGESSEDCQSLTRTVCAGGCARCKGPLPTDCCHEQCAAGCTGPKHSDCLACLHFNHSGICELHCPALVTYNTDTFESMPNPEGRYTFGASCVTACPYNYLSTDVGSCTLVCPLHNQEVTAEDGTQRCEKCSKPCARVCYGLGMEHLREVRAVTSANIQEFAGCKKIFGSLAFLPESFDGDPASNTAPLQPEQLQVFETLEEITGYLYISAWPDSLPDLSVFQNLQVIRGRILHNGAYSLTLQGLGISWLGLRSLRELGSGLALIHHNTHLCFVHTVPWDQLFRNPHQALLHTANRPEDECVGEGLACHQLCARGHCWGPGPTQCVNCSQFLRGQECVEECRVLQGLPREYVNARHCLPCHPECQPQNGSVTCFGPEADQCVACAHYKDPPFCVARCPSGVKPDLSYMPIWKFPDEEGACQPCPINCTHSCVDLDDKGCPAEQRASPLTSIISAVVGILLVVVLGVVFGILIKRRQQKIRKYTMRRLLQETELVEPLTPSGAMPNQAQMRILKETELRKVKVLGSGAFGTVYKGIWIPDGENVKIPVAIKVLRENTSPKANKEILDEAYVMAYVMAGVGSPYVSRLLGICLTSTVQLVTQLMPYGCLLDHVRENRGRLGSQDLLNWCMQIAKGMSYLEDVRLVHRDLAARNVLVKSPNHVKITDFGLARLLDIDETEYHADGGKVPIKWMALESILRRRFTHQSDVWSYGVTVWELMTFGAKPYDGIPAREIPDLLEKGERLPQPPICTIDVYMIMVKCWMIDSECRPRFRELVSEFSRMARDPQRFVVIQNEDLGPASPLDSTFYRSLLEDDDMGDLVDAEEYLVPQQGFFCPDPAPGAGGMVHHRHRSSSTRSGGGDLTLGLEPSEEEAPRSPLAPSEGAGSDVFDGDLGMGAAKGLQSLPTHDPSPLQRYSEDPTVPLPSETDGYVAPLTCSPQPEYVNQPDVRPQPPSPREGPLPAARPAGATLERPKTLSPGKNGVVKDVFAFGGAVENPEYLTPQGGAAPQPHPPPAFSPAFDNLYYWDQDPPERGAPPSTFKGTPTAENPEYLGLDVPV
# T1 sequence (P04626 with tags, fused parts or gaps INS775YVMA): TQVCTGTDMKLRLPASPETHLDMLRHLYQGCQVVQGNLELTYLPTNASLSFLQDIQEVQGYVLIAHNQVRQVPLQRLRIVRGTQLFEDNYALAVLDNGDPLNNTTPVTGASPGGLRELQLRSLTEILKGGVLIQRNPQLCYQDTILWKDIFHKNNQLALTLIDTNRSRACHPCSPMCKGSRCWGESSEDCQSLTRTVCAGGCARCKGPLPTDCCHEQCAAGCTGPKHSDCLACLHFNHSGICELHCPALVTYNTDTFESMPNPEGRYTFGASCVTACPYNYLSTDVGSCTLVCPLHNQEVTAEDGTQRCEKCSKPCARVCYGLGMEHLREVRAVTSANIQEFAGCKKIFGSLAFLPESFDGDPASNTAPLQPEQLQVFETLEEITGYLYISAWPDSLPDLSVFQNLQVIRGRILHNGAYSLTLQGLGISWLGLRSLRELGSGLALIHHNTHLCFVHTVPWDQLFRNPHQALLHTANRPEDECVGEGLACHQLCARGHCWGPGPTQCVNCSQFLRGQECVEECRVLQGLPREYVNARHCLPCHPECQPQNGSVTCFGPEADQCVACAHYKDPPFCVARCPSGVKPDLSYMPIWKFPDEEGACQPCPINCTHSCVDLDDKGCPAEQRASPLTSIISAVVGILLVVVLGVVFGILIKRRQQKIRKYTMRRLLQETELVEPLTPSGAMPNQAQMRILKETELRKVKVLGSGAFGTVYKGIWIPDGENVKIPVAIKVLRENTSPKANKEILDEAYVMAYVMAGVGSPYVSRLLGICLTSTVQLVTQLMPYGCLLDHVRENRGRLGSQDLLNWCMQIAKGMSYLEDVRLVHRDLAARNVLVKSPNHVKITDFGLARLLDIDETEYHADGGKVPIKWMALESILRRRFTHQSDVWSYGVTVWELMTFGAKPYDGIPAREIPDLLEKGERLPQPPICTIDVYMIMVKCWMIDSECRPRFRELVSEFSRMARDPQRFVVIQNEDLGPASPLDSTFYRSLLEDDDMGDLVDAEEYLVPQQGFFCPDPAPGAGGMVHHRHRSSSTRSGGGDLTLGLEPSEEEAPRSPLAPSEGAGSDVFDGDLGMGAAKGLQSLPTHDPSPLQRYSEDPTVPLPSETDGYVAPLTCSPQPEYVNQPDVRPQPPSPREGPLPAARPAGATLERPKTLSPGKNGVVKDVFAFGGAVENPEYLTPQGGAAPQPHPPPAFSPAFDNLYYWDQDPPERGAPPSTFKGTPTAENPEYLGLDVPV
Structure (SMILES),GI50 [1] [nM],Stability in presence of mouse liver microsomes without cofactor NADPH [% remaining after 50 min] [2] [% remaining after 50 min],IC50 (H1975) [nM],IC50 (EGFR wt) [nM],GI50 [3] [nM],IC50 (EGFR T790ML858R) [nM],IC50 (H1781) [nM],IC50 (HER2 INS YVMA) [nM],IC50 (A431) [nM]
"C=CC(=O)Nc1cc(-c2c(-c3cccc(CN4CCN(C)CC4)c3)[nH]c3nccc(Cl)c23)ccc1C [Example 16, N-(5-(4-chloro-2-(3-((4-methylpiperazin-1-yl)methyl)phenyl)-1H-pyrrolo[2,3-b]pyridin-3-yl)-2-methylphenyl)acrylamide]",100 to 500,>99,≤ 100,≤ 100,100 to 500,≤ 100,500 to 1000,≤ 100,500 to 1000
"C=CC(=O)Nc1cc(-c2c(-c3ccc(N4CCN(C)CC4)nc3)[nH]c3ncccc23)ccc1C [Example 78, N-(2-methyl-5-(2-(6-(4-methylpiperazin-1-yl)pyridin-3-yl)-1H-pyrrolo[2,3-b]pyridin-3-yl)phenyl)acrylamide 2,2,2-trifluoroacetate]",500 to 1000,>99,≤ 100,≤ 100,100 to 500,≤ 100,500 to 1000,100 to 500,100 to 500
"C=CC(=O)Nc1cc(-c2c(-c3ccc(OCCCN(C)C)cc3)[nH]c3nccc(Cl)c23)ccc1C [Example 13, N-(5-(4-chloro-2-(4-(3-(dimethylamino)propoxy)phenyl)-1H-pyrrolo[2,3-b]pyridin-3-yl)-2-methylphenyl)acrylamide]",100 to 500,95,≤ 100,≤ 100,100 to 500,≤ 100,100 to 500,≤ 100,100 to 500
"C=CC(=O)N1CCc2ccc(-c3c(-c4ccc(CN(C)C)cc4)[nH]c4nccc(Cl)c34)cc21 [Example 61, 1-(6-(4-chloro-2-(4-((dimethylamino)methyl)phenyl)-1H-pyrrolo[2,3-b]pyridin-3-yl)indolin-1-yl)prop-2-en-1-one]",100 to 500,>99,≤ 100,≤ 100,100 to 500,≤ 100,500 to 1000,≤ 100,100 to 500
"C=CC(=O)N1CCc2ccc(-c3c(-c4ccnc(N5CCN(C)CC5)c4)[nH]c4nccc(Cl)c34)cc21 [Example 59, 1-(6-(4-chloro-2-(2-(4-methylpiperazin-1-yl)pyridin-4-yl)-1H-pyrrolo[2,3-b]pyridin-3-yl)indolin-1-yl)prop-2-en-1-one]",100 to 500,>99,≤ 100,≤ 100,100 to 500,≤ 100,100 to 500,≤ 100,100 to 500
"C=CC(=O)Nc1cc(-c2c(-c3ccc(CN4CCN(C)CC4)cc3)[nH]c3nccc(OC)c23)ccc1C [Example 77, N-(5-(4-methoxy-2-(4-((4-methylpiperazin-1-yl)methyl)phenyl)-1H-pyrrolo[2,3-b]pyridin-3-yl)-2-methylphenyl)acrylamide]",100 to 500,>99,≤ 100,≤ 100,100 to 500,≤ 100,100 to 500,≤ 100,100 to 500
"C=CC(=O)Nc1cc(-c2c(-c3ccc(CN4CCN(C)CC4)cc3)[nH]c3nccc(Cl)c23)ccc1C [Example 1, N-(5-(4-chloro-2-(4-((4-methylpiperazin-1-yl)methyl)phenyl)-1H-pyrrolo[2,3-b]pyridin-3-yl)-2-methylphenyl)acrylamide 2,2,2-trifluoroacetate]",≤ 100,>99,≤ 100,≤ 100,100 to 500,≤ 100,100 to 500,≤ 100,100 to 500
"C=CC(=O)Nc1cc(-c2c(-c3cccc(OCCCN4CCN(CC)CC4)c3)[nH]c3nccc(Cl)c23)ccc1C [Example 25, N-(5-(4-chloro-2-(3-(3-(4-ethylpiperazin-1-yl)propoxy)phenyl)-1H-pyrrolo[2,3-b]pyridin-3-yl)-2-methylphenyl)acrylamide]",100 to 500,>99,≤ 100,≤ 100,100 to 500,≤ 100,500 to 1000,≤ 100,100 to 500
"C=CC(=O)N1CCc2ccc(-c3c(-c4ccc(N5CCN(C(C)=O)CC5)cc4)[nH]c4nccc(Cl)c34)cc21 [Example 58, 1-(6-(2-(4-(4-acetylpiperazin-1-yl)phenyl)-4-chloro-1H-pyrrolo[2,3-b]pyridin-3-yl)indolin-1-yl)prop-2-en-1-one]",1000 to 10000,>99,100 to 500,≤ 100,1000 to 10000,≤ 100,1000 to 100000,≤ 100,1000 to 100000
"C=CC(=O)N1CCCc2ccc(-c3c(-c4ccc(N5CCN(C)CC5)cc4)[nH]c4nccc(Cl)c34)cc21 [Example 86, 1-(7-(4-chloro-2-(4-(4-methylpiperazin-1-yl)phenyl)-1H-pyrrolo[2,3-b]pyridin-3-yl)-3,4-dihydroquinolin-1(2H)-yl)prop-2-en-1-one 2,2,2-trifluoroacetate]",500 to 1000,>99,100 to 500,≤ 100,500 to 1000,≤ 100,1000 to 100000,≤ 100,1000 to 100000
"C=CC(=O)Nc1cc(-c2c(-c3cccc(CN4CCN(C)CC4)c3)[nH]c3nccc(OC)c23)ccc1C [Example 76, N-(5-(4-methoxy-2-(3-((4-methylpiperazin-1-yl)methyl)phenyl)-1H-pyrrolo[2,3-b]pyridin-3-yl)-2-methylphenyl)acrylamide]",100 to 500,>99,≤ 100,≤ 100,100 to 500,≤ 100,500 to 1000,≤ 100,500 to 1000
